Test results as given in the NIST ThermoML archive (doi:10.1021/je301164d).

Settings: Fluid (supercritical or subcritical phases)

CC(F)(F)CC(F)(F)F [1,1,1,3,3-pentafluorobutane]
Settings | speed of sound [m/s]
250 K, 1105.2 kPa | 921.65
250 K, 2105.8 kPa | 926.73
250 K, 3106.3 kPa | 931.74
250 K, 4106.9 kPa | 936.7
250 K, 5107.4 kPa | 941.59
250 K, 6108.3 kPa | 946.43
250 K, 7108.9 kPa | 951.22
250 K, 8108.1 kPa | 955.95
250 K, 9108.8 kPa | 960.64
250 K, 10110 kPa | 965.28
250 K, 12611 kPa | 976.67
250 K, 15113 kPa | 987.78
250 K, 17614 kPa | 998.62
250 K, 20116 kPa | 1009.2
250 K, 25120 kPa | 1029.8
250 K, 30123 kPa | 1049.5
250 K, 35127 kPa | 1068.4
250 K, 40130 kPa | 1086.7
250 K, 45133 kPa | 1104.4
250 K, 50137 kPa | 1121.5
260 K, 1104.3 kPa | 881.57
260 K, 2104.8 kPa | 886.96
260 K, 3105.3 kPa | 892.27
260 K, 4105.9 kPa | 897.52
260 K, 5106.3 kPa | 902.7
260 K, 6107.9 kPa | 907.82
260 K, 7109.2 kPa | 912.89
260 K, 8109.9 kPa | 917.88
260 K, 9110.7 kPa | 922.82
260 K, 10112 kPa | 927.71
260 K, 12613 kPa | 939.68
260 K, 15115 kPa | 951.34
260 K, 17617 kPa | 962.7
260 K, 20118 kPa | 973.79
260 K, 25122 kPa | 995.21
260 K, 30126 kPa | 1015.7
260 K, 35129 kPa | 1035.4
260 K, 40133 kPa | 1054.3
260 K, 45136 kPa | 1072.6
260 K, 50140 kPa | 1090.3
260 K, 60146 kPa | 1124.1
260 K, 70153 kPa | 1155.9
260 K, 80160 kPa | 1186.1
260 K, 90167 kPa | 1214.9
260 K, 100174 kPa | 1242.4
280 K, 1104.4 kPa | 803.31
280 K, 2104.9 kPa | 809.41
280 K, 3105.4 kPa | 815.42
280 K, 4106 kPa | 821.34
280 K, 5106.6 kPa | 827.16
280 K, 6107.8 kPa | 832.89
280 K, 7108.5 kPa | 838.55
280 K, 8109.3 kPa | 844.12
280 K, 9110.2 kPa | 849.62
280 K, 10111 kPa | 855.04
280 K, 12613 kPa | 868.29
280 K, 15114 kPa | 881.13
280 K, 17616 kPa | 893.6
280 K, 20118 kPa | 905.71
280 K, 25121 kPa | 929
280 K, 30124 kPa | 951.17
280 K, 35128 kPa | 972.34
280 K, 40131 kPa | 992.62
280 K, 45135 kPa | 1012.1
280 K, 50138 kPa | 1030.9
280 K, 60145 kPa | 1066.6
280 K, 70152 kPa | 1100.2
280 K, 80159 kPa | 1131.9
280 K, 90166 kPa | 1162
280 K, 100172 kPa | 1190.6
300 K, 1104.5 kPa | 727.1
300 K, 2105 kPa | 734.06
300 K, 3105.5 kPa | 740.9
300 K, 4106 kPa | 747.61
300 K, 5107 kPa | 754.19
300 K, 6107.6 kPa | 760.65
300 K, 7107.1 kPa | 766.96
300 K, 8107.8 kPa | 773.21
300 K, 9108.4 kPa | 779.34
300 K, 10110 kPa | 785.37
300 K, 12612 kPa | 800.06
300 K, 15114 kPa | 814.23
300 K, 17616 kPa | 827.91
300 K, 20117 kPa | 841.15
300 K, 25121 kPa | 866.44
300 K, 30125 kPa | 890.34
300 K, 35129 kPa | 913.06
300 K, 40132 kPa | 934.74
300 K, 45136 kPa | 955.48
300 K, 50139 kPa | 975.38
300 K, 60146 kPa | 1013.1
300 K, 70153 kPa | 1048.3
300 K, 80160 kPa | 1081.4
300 K, 90167 kPa | 1112.7
300 K, 100174 kPa | 1142.5
319.99 K, 2104.9 kPa | 660.37
319.99 K, 3105.5 kPa | 668.24
319.99 K, 4106.3 kPa | 675.92
319.99 K, 5107.7 kPa | 683.41
319.99 K, 6108.6 kPa | 690.74
319.99 K, 7109.3 kPa | 697.91
319.99 K, 8110 kPa | 704.93
320 K, 9111.2 kPa | 711.77
320 K, 10112 kPa | 718.52
320 K, 12614 kPa | 734.86
320 K, 15115 kPa | 750.5
320 K, 17617 kPa | 765.53
320 K, 20119 kPa | 779.98
320 K, 25123 kPa | 807.44
320 K, 30126 kPa | 833.19
320 K, 35130 kPa | 857.51
320 K, 40134 kPa | 880.59
320 K, 45137 kPa | 902.59
320 K, 50141 kPa | 923.63
320 K, 60148 kPa | 963.25
320 K, 70155 kPa | 1000.1
320 K, 80162 kPa | 1034.6
320 K, 90169 kPa | 1067.1
320 K, 100176 kPa | 1098
320.01 K, 1103.1 kPa | 652.28
340 K, 1105.8 kPa | 578.15
340 K, 2106.4 kPa | 587.65
340 K, 3107 kPa | 596.83
340 K, 4107.5 kPa | 605.73
340 K, 5108.1 kPa | 614.36
340 K, 6109.1 kPa | 622.75
340 K, 7109.7 kPa | 630.92
340 K, 8108.9 kPa | 638.86
340 K, 9109.4 kPa | 646.62
340 K, 10110 kPa | 654.2
340 K, 12611 kPa | 672.43
340 K, 15113 kPa | 689.74
340 K, 17614 kPa | 706.24
340 K, 20116 kPa | 722.03
340 K, 25119 kPa | 751.78
340 K, 30122 kPa | 779.47
340 K, 35124 kPa | 805.42
340 K, 40128 kPa | 829.93
340 K, 45131 kPa | 853.19
340 K, 50135 kPa | 875.34
340 K, 60142 kPa | 916.86
340 K, 70150 kPa | 955.26
340 K, 80157 kPa | 991.12
340 K, 90164 kPa | 1024.8
340 K, 100171 kPa | 1056.7
360 K, 1102.1 kPa | 503.74
360 K, 2102.7 kPa | 515.2
360 K, 3103.3 kPa | 526.14
360 K, 4104 kPa | 536.64
360 K, 5104.8 kPa | 546.73
360 K, 6106.2 kPa | 556.45
360 K, 7106.9 kPa | 565.84
360 K, 8107.7 kPa | 574.94
360 K, 9108.4 kPa | 583.75
360 K, 10109 kPa | 592.32
360 K, 12611 kPa | 612.74
360 K, 15113 kPa | 631.92
360 K, 17615 kPa | 650.07
360 K, 20117 kPa | 667.31
360 K, 25120 kPa | 699.5
360 K, 30124 kPa | 729.19
360 K, 35127 kPa | 756.83
360 K, 40130 kPa | 782.78
360 K, 45134 kPa | 807.28
360 K, 50137 kPa | 830.52
360 K, 60144 kPa | 873.89
360 K, 70151 kPa | 913.8
360 K, 80158 kPa | 950.91
360 K, 90165 kPa | 985.68
360 K, 100172 kPa | 1018.5
379.99 K, 1100.8 kPa | 427.28
379.99 K, 2101.7 kPa | 441.66
379.99 K, 3102.1 kPa | 455.12
379.99 K, 4102.7 kPa | 467.8
379.99 K, 5103.4 kPa | 479.82
379.99 K, 6104.7 kPa | 491.27
379.99 K, 7105.5 kPa | 502.21
379.99 K, 8106.3 kPa | 512.71
379.99 K, 9107.5 kPa | 522.81
379.99 K, 10108 kPa | 532.54
379.99 K, 12610 kPa | 555.5
379.99 K, 15112 kPa | 576.81
379.99 K, 17614 kPa | 596.76
379.99 K, 20116 kPa | 615.56
379.99 K, 25119 kPa | 650.34
379.99 K, 30123 kPa | 682.08
379.99 K, 35126 kPa | 711.42
379.99 K, 40130 kPa | 738.79
379.99 K, 45134 kPa | 764.51
379.99 K, 50137 kPa | 788.83
379.99 K, 60144 kPa | 833.97
379.99 K, 70151 kPa | 875.31
379.99 K, 80158 kPa | 913.6
379.99 K, 90166 kPa | 949.39
379.99 K, 100173 kPa | 983.05
400 K, 1605.2 kPa | 355.52
400 K, 2105.7 kPa | 364.94
400 K, 3106.4 kPa | 382.38
400 K, 4107.2 kPa | 398.31
400 K, 5108.1 kPa | 413.05
400 K, 6107.8 kPa | 426.8
400 K, 7108.6 kPa | 439.76
400 K, 8109.4 kPa | 452.03
400 K, 9110.2 kPa | 463.7
400 K, 10111 kPa | 474.85
400 K, 12613 kPa | 500.78
400 K, 15114 kPa | 524.48
400 K, 17616 kPa | 546.39
400 K, 20118 kPa | 566.86
400 K, 25122 kPa | 604.31
400 K, 30125 kPa | 638.14
400 K, 35128 kPa | 669.16
400 K, 40132 kPa | 697.92
400 K, 45135 kPa | 724.83
400 K, 50138 kPa | 750.16
400 K, 60145 kPa | 796.98
400 K, 70152 kPa | 839.66
400 K, 80159 kPa | 879.05
400 K, 90166 kPa | 915.76
400 K, 100174 kPa | 950.23
419.99 K, 2103.3 kPa | 280.02
419.99 K, 3102.8 kPa | 305.08
419.99 K, 4103.6 kPa | 326.49
419.99 K, 5104.3 kPa | 345.41
419.99 K, 6105 kPa | 362.51
419.99 K, 7105.6 kPa | 378.2
419.99 K, 8106.4 kPa | 392.76
419.99 K, 9107.1 kPa | 406.4
419.99 K, 10108 kPa | 419.26
